Source: patent publication US20260364072A1, “METHODS FOR PROMOTING EXPANSION OF HUMAN CD34+ CELLS IN VIVO AND FOR PROMOTING NEURAL REGENERATION” (THE REGENTS OF THE UNIVERSITY OF CALIFORNIA, priority 2023, published 2026)

Tests used:
[1] = system: MCL1 and SF3B3 transcripts; assay: Pharmacodynamic splice isoform qRT-PCR in PBMCs from treated NHPs; type: in vivo, cynomolgus monkeys
Protocol: Pharmacodynamic studies were conducted on peripheral blood mononuclear cells (PBMCs) isolated from NHPs treated with escalating doses of Rebecsinib (3 mg/kg, 10 mg/kg, 15 mg/kg or 20 mg/kg) or a vehicle control and collected at 30 minute and 4 hours post-dose.
(FIG. 29G, FIG. 29H) For in vivo TK and complementary pharmacodynamic studies, NHPs were given a single injection of Rebecsinib at 3-20 mg/kg, or vehicle control, and blood samples were drawn at regular intervals to determine plasma concentrations (FIG. 29G) of the compound along with splice isoform biomarker assays to quantify MCL1 exon skipping in PBMCs isolated from treated animals (FIG. 29H, n=2 animals per group).
(§1) For quantitative analysis of splice isoform expression, RNA editing rates, and whole gene expression by qRT-PCR, cells or tissue fragments were harvested in RNA lysis buffer and total RNA was extracted using RNeasy mini or micro extraction kits (QIAGEN, Germantown, MD) following the manufacturer's protocol including a DNase incubation step to digest any trace genomic DNA present. Levels of ADAR1 variants and LSC-specific transcripts were quantified by qRT-PCR as previously described.^14 RNA-editing site-specific qRT-PCR (RESSqPCR) was performed for variants in AZIN1 transcripts.^53 Additional species-specific primers were also designed to quantify intron retention rates in cells treated with Rebecsinib as a biomarker of response to RNA splicing modulation. Specifically, for the two-step SYBR-green based assays, as previously described,^7,14,53 100-1000 ng of RNA were subjected to cDNA synthesis using the SUPERSCRIPT III™ (ThermoFisher Scientific) kit followed by qRT-PCR using SYBR GreenER (ThermoFisher Scientific) master mix according to the manufacturer's recommended procedures. qRT-PCR was performed using SYBR GREENER SUPER MIX™ (Life Technologies) on BioRad iQ5™, C1000 TOUCH™, or BioRad CFX384™ instruments. Human splice isoform-specific, RNA editing site-specific qPCR (RESSqPCR)^53. Primer sets that have not been previously published were designed and tested for efficiency followed by analyses in samples exposed to Rebecsinib, with species-specific HPRT primers used as controls. Samples with Ct<35 for the species-specific reference gene, HPRT, were included in analyses. Relative mRNA expression values were calculated using the 2^−ΔCT method, with normalization to untreated or vehicle-treated controls.^54

[2] = system: normal HSPCs; assay: Normal cord blood HSPC engrafted mice; type: in vivo, human cells in Rag2-/-γc-/- mice
Protocol: To determine the sensitivity of normal HSPCs to Rebecsinib, human cord blood-derived CD34+ cells were transplanted into Rag2^−/−γc^−/− mice. After human cell engraftment was established (6 to 12 weeks), mice were treated with Rebecsinib twice-weekly for two weeks at doses equivalent to the maximum doses selected for in vivo LSC assays. The frequency of CD45^+ hematopoietic cells in bone marrow, peripheral blood, spleen, and thymus were unchanged between vehicle and Rebecsinib-treated groups that received a dose of 10 mg/kg. […] Thus, a dose of 10 mg/kg in mice is sufficient to reduce in vivo sAML LSC burden while sparing normal HSPC development.
In humanized mouse models, sAML cells (CD34^+) from two unique […] patient samples that were splicing factor mutated or unmutated were utilized, including sAML50261 and sAML2008-5.^14 For in vivo efficacy and therapeutic index studies, sAML CD34^+ cells, or normal human cord blood-derived or aged bone marrow-derived HSPCs (CD34^+), were transplanted (50,000-200,000 cells per mouse) intrahepatically into neonatal Rag2^−/−γc^−/− mice, or intravenously into adult NSG-SGM3 mice (Jackson Laboratories, Bar Harbor, ME). A subset of experiments was performed with normal aged bone marrow cells that were transduced with the lentiviral ADAR1 nanoluc-GFP reporter vector prior to transplant. For transplantation into adult mice, animals were irradiated with ^137Cs at a dose of 150 cGy 24 hr before IV transplantation. After engraftment levels reached >1% human CD45^+ hematopoietic cells in the peripheral blood, animals were distributed among treatment groups for treatment with Rebecsinib or vehicle control essentially as previously described, with an increased dosing regimen of twice weekly (versus once weekly in prior studies)^14 and an optimized in vivo formulation (2% w/w EtOH, 5% w/v KOLLIPHOR HS™ 15 in 0.9% saline). For animals that received transplants of cells transduced with the lentiviral ADAR1 nanoluc-GFP reporter, mice were imaged 15 weeks after transplant on the IVIS 200, as previously described.^79 Following treatment with Rebecsinib (five intravenous doses total over a two-week period), hematopoietic tissues (peripheral blood, bone marrow, spleens) were collected and analyzed by flow cytometry as previously described.^14 For splice isoform-specific qRT-PCR or RNA-seq analyses on cells from in vivo studies, human CD34^+ LSC from bone marrows and spleens of engrafted mice were isolated by magnetic bead separation (Miltenyi Biotec).

[3] = system: RBL-1 leukemia cells (Sf3b family members); assay: Splice isoform biomarker qRT-PCR in rat RBL-1 leukemia cells; type: cell-based; conditions: 1 μM, 4 hr; different lots of Rebecsinib
Protocol: For quantitative analysis of splice isoform expression, RNA editing rates, and whole gene expression by qRT-PCR, cells or tissue fragments were harvested in RNA lysis buffer and total RNA was extracted using RNeasy mini or micro extraction kits (QIAGEN, Germantown, MD) following the manufacturer's protocol including a DNase incubation step to digest any trace genomic DNA present. Levels of ADAR1 variants and LSC-specific transcripts were quantified by qRT-PCR as previously described.^14 RNA-editing site-specific qRT-PCR (RESSqPCR) was performed for variants in AZIN1 transcripts.^53 Additional species-specific primers were also designed to quantify intron retention rates in cells treated with Rebecsinib as a biomarker of response to RNA splicing modulation. […] Relative mRNA expression values were calculated using the 2^−ΔCT method, with normalization to untreated or vehicle-treated controls.^54
(§2) For multi-species biomarker development and transcript variant-specific qRT-PCR experiments, human AML cell lines KG-1a, MOLM-13, and HL-60, and rat leukemia cells RBL-1 were grown to confluence and treated with 1 μM Rebecsinib for 4 hr. Cells were collected and lysed in Qiagen RNA lysis buffer, and analyzed using the species-specific primers and qRT-PCR procedures described above.

[4] = system: KG-1a, MOLM-13 and HL-60 cells (SF3B family members, PTK2B-202); assay: Splice isoform biomarker qRT-PCR in human AML cell lines; type: cell-based; conditions: 1 μM, 4 hr
Protocol: as §1, with “Samples with Ct<35 for the species-specific reference gene, HPRT, were included in analyses.” left out
as §2

CC[C@H](OC)[C@@H](C)[C@H]1O[C@@H]1[C@@H](O)[C@H](C)/C=C/C=C(\C)[C@H]1OC(=O)C[C@H](O)CC[C@@](C)(O)[C@@H](OC(C)=O)/C=C/[C@@H]1C [Rebecsinib]
MCL1 exon skipping in PBMCs ([1]; NHP, 3, 10, 15 or 20 mg/kg, 30 minute and 4 hours post-dose): on-target splicing modulation typified by MCL1 exon skipping
splicing modulation ([1]; NHP, PD analyses): predictable, dose-dependent splicing modulation
SF3B3 intron retention in PBMCs, 4 hours ([1]; NHP, single doses of 3, 10, 15 or 20 mg/kg): detectable at 4 hours
SF3B3 intron retention in PBMCs, 30 min ([1]; NHP, single doses of 3, 10, 15 or 20 mg/kg, compared with vehicle): increased at 30 min
frequency of CD45+ hematopoietic cells in bone marrow, peripheral blood, spleen, and thymus ([2]; 10 mg/kg, twice-weekly for two weeks): unchanged
human CD19+ cells in peripheral blood ([2]; 20 mg/kg): reduction
human CD45+ and CD19+ cells in bone marrow or spleen ([2]; 20 mg/kg): not in the bone marrow or spleen
human CD45+ cells in peripheral blood ([2]; 20 mg/kg): reduction
systemic toxicity ([2]; 2 weeks of dosing at 10 or 20 mg/kg): no evidence of Rebecsinib-related systemic toxicity
CD19+ B cells in bone marrow, peripheral blood, or spleen ([2]; vs vehicle): no significant reduction
human CD3+ T cells in thymus or peripheral blood ([2]; vs vehicle): no significant reduction
intron retention in Sf3b family members [3]: rapidly induced
expression of PTK2B-202 isoform [4]: Decreased expression of the LSC-related PTK2B-202 isoform
intronic retention of SF3B family members ([4]; KG-1a, MOLM-13 and HL-60): significant upregulation of intronic retention of SF3B family members
SF3B3 intron retention response ([4]; across all cell lines): most potent and consistent response
